Results taken from patent US11045453B1 (priority 2020, dated 2021).
Entries after “also recorded” stand apart in the source; their conditions may differ.

Columns and labels:
[1] = system: SARS-CoV-2 clinical isolate (2019-nCoV/USA-WA1/2020); format: cell-based
[2] = system: VSVpp+SARS-2-S Δ18 in Vero-E6 cells; format: cell-based, African green monkey
[3] = molecular target: Human Trypsin-6 (Homo sapiens, UniProt Q8NHM4); assay: Ki determination, chromogenic substrate cleavage; format: biochemical; conditions: read-out: Ki Mean ± SD (n)
[4] = molecular target: T1, Human Thrombin (Homo sapiens, UniProt P00734); assay: Ki determination, chromogenic substrate cleavage; format: biochemical; conditions: read-out: Ki Mean ± SD (n)
T1 construct: Human Thrombin

[5] = molecular target: T2, Human FXIa (Homo sapiens, UniProt P03951); assay: Ki determination, chromogenic substrate cleavage; format: biochemical; conditions: read-out: Ki Mean ± SD (n)
T2 construct: Human FXIa

[6] = molecular target: Human Trypsin-1 (Homo sapiens, UniProt P07477); assay: biochemical
[7] = molecular target: Human DESC-1 (Homo sapiens, UniProt Q9UL52); assay: Ki determination, chromogenic substrate cleavage; format: biochemical; conditions: read-out: Ki Mean ± SD (n)
[8] = molecular target: Human Kallikrein-8 (Homo sapiens, UniProt O60259); assay: Ki determination, chromogenic substrate cleavage; format: biochemical; conditions: read-out: Ki Mean ± SD (n)
[9] = molecular target: Human Matriptase-2 (Homo sapiens, UniProt Q8IU80); assay: Ki determination, chromogenic substrate cleavage; format: biochemical; conditions: read-out: Ki Mean ± SD (n)
[10] = molecular target: Human Kallikrein-11 (Homo sapiens, UniProt Q9UBX7); assay: Ki determination, chromogenic substrate cleavage; format: biochemical; conditions: read-out: Ki Mean ± SD (n)
[11] = molecular target: Human Trypsin-2 (Homo sapiens, UniProt P07478); assay: biochemical
[12] = molecular target: Human Activated Protein C (Homo sapiens, UniProt P04070); assay: Ki determination, chromogenic substrate cleavage; format: biochemical; conditions: read-out: Ki Mean ± SD (n)
[13] = molecular target: Human C1s (Homo sapiens, UniProt P09871); assay: Ki determination, chromogenic substrate cleavage; format: biochemical; conditions: read-out: Ki Mean ± SD (n)
[14] = molecular target: Mouse uPA (Mus musculus, UniProt P06869); assay: Ki determination, chromogenic substrate cleavage; format: biochemical; conditions: read-out: Ki Mean ± SD (n)
[15] = molecular target: T3, Human two-chain tPA (Homo sapiens, UniProt P00750); assay: Ki determination, chromogenic substrate cleavage; format: biochemical; conditions: read-out: Ki Mean ± SD (n)
T3 construct: Human two-chain tPA

[16] = molecular target: Human HAT (Homo sapiens, UniProt O60235); assay: Ki determination, chromogenic substrate cleavage; format: biochemical; conditions: read-out: Ki Mean ± SD (n)
[17] = molecular target: Human uPA (H99A in medium) (Homo sapiens, UniProt P00749, H272A); assay: Ki determination, chromogenic substrate cleavage; format: biochemical; conditions: read-out: Ki Mean ± SD (n)
[18] = molecular target: Rat uPA (Rattus norvegicus, UniProt P29598); assay: Ki determination, chromogenic substrate cleavage; format: biochemical; conditions: read-out: Ki Mean ± SD (n)
[19] = molecular target: Human uPA (Q192A in medium) (Homo sapiens, UniProt P00749, Q373A); assay: Ki determination, chromogenic substrate cleavage; format: biochemical; conditions: read-out: Ki Mean ± SD (n)
[20] = molecular target: T4, Human Plasmin (Homo sapiens, UniProt P00747); assay: Ki determination, chromogenic substrate cleavage; format: biochemical; conditions: read-out: Ki Mean ± SD (n)
T4 construct: Human Plasmin

[21] = molecular target: Bovine Cationic Trypsin-1 (Bos taurus, UniProt P00760); assay: Ki determination, chromogenic substrate cleavage; format: biochemical; conditions: read-out: Ki Mean ± SD (n)
[22] = molecular target: Human Enterokinase (Homo sapiens, UniProt P98073); assay: Ki determination, chromogenic substrate cleavage; format: biochemical; conditions: read-out: Ki Mean ± SD (n)
[23] = molecular target: Human Kallikrein-1 (Homo sapiens, UniProt P06870); assay: Ki determination, chromogenic substrate cleavage; format: biochemical; conditions: read-out: Ki Mean ± SD (n)
[24] = molecular target: Human Prostasin (Homo sapiens, UniProt Q16651); assay: Protease inhibition (IC50), chromogenic substrate cleavage; format: biochemical; conditions: listed as marked (IC50) in the Ki column, read-out: IC50 Mean ± SD (n)
[25] = molecular target: T5, Human TMPRSS11(A) (Homo sapiens, UniProt Q6ZMR5); assay: Ki determination, chromogenic substrate cleavage; format: biochemical; conditions: read-out: Ki Mean ± SD (n)
T5 construct: purchased MyBioSource MBS1345824; host or cells: mammalian expression system
Method: The Ki was determined to be 0.39±0.01 (3) μM.

[26] = molecular target: Human Hepsin (Homo sapiens, UniProt P05981); assay: Ki determination, chromogenic substrate cleavage; format: biochemical; conditions: read-out: Ki Mean ± SD (n)
[27] = molecular target: Human Trypsin-3 (Homo sapiens, UniProt P35030); assay: biochemical
[28] = molecular target: T6, Human FIXa (Homo sapiens, UniProt P00740); assay: Ki determination, chromogenic substrate cleavage; format: biochemical; conditions: read-out: Ki Mean ± SD (n)
T6 construct: Human FIXa

[29] = molecular target: T7, Human TMPRSS2 (Homo sapiens, UniProt O15393); assay: Ki determination, chromogenic substrate cleavage; format: biochemical; conditions: read-out: Ki Mean ± SD (n)
T7 construct: purchased MyBioSource MBS1193731; host or cells: mammalian expression system
Method: The Ki was determined to be 2.9±0.04 (3) μM.

[30] = molecular target: Human uPA (Homo sapiens, UniProt P00749); assay: Ki determination, chromogenic substrate cleavage; format: biochemical; conditions: read-out: Ki Mean ± SD (n)
[31] = system: VSV-G pseudotypes in Calu-3 cells; format: cell-based, human
[32] = molecular target: Human Spinesin (Homo sapiens, UniProt Q9H3S3); assay: Ki determination, chromogenic substrate cleavage; format: biochemical; conditions: read-out: Ki Mean ± SD (n)
[33] = system: VSVpp+SARS-2-S Δ18 in Calu-3 cells; format: cell-based, human
[34] = molecular target: Human PRSS27 (Homo sapiens, UniProt Q9BQR3); assay: Protease inhibition (IC50), chromogenic substrate cleavage; format: biochemical; conditions: listed as marked (IC50) in the Ki column, read-out: IC50 Mean ± SD (n)
[35] = molecular target: Rabbit uPA (Oryctolagus cuniculus, UniProt Q8MHY7); assay: Ki determination, chromogenic substrate cleavage; format: biochemical; conditions: read-out: Ki Mean ± SD (n)
[36] = molecular target: T8, Human Fxa (Homo sapiens, UniProt P00742); assay: Ki determination, chromogenic substrate cleavage; format: biochemical; conditions: read-out: Ki Mean ± SD (n)
T8 construct: Human Fxa

[37] = molecular target: Human Granzyme A (Homo sapiens, UniProt P12544); assay: Ki determination, chromogenic substrate cleavage; format: biochemical; conditions: read-out: Ki Mean ± SD (n)
[38] = molecular target: Human HGFA (Homo sapiens, UniProt Q04756); assay: Ki determination, chromogenic substrate cleavage; format: biochemical; conditions: read-out: Ki Mean ± SD (n)
[39] = molecular target: Human Plasma Kallikrein (Homo sapiens, UniProt P03952); assay: Ki determination, chromogenic substrate cleavage; format: biochemical; conditions: read-out: Ki Mean ± SD (n)
Human Plasma Kallikrein, sequence (P03952 20-638): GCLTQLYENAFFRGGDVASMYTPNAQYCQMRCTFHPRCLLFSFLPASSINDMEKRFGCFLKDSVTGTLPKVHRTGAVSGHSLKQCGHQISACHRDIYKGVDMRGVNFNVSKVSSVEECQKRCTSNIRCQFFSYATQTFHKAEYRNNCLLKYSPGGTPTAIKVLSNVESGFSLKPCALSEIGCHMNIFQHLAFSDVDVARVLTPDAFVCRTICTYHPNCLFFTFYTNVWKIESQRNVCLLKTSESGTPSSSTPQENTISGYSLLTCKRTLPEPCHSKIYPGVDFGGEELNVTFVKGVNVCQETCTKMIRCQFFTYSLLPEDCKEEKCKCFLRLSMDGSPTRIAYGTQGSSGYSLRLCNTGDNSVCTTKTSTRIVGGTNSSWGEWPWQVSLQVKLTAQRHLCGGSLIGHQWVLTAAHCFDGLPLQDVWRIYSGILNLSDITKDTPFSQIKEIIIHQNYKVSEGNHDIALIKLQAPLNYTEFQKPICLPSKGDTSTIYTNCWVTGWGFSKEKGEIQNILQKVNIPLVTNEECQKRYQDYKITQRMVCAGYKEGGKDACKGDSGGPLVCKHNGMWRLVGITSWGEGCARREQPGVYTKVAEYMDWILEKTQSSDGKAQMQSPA

Human Spinesin, sequence (Q9H3S3 whole entry): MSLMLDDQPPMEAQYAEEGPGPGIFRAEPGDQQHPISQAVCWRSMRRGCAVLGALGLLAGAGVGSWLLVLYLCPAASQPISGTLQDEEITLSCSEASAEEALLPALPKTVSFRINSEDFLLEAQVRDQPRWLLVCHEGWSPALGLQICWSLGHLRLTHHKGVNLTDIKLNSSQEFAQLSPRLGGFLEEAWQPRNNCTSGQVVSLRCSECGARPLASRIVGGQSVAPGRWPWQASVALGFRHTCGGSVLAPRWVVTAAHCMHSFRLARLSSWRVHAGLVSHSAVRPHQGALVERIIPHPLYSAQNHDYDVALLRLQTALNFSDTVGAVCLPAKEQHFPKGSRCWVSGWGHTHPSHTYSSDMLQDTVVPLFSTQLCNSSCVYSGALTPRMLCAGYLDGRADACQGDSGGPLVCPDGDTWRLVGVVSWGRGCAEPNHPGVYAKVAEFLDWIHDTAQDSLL
Human Trypsin-2, sequence (P07478 24-247): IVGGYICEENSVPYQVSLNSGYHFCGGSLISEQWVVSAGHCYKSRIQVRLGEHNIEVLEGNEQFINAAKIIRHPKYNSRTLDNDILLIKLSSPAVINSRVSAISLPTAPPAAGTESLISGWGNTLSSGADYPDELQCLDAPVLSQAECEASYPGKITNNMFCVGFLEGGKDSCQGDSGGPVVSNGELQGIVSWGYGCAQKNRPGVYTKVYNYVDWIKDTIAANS
Human HGFA, sequence (Q04756 373-655): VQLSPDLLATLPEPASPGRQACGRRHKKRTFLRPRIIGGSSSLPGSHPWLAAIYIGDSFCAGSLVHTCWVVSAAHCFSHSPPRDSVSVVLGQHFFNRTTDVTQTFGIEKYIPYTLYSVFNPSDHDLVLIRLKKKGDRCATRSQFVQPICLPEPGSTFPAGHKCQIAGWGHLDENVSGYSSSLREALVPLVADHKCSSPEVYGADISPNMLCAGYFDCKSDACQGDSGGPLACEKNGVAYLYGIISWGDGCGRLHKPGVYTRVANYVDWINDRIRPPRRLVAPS
Human Hepsin, sequence (P05981 whole entry): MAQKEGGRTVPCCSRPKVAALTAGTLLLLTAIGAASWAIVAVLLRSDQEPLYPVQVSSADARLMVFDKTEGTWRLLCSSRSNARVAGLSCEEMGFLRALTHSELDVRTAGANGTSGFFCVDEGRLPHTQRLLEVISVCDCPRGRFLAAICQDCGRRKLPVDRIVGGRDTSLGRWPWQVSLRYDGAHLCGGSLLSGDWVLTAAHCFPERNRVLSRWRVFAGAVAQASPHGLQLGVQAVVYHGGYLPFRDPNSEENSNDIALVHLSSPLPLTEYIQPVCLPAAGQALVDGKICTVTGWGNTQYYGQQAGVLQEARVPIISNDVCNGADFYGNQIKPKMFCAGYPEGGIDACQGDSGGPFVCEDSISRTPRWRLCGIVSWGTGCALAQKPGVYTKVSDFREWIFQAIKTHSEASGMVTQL
T2 sequence (P03951 388-625 limits assumed): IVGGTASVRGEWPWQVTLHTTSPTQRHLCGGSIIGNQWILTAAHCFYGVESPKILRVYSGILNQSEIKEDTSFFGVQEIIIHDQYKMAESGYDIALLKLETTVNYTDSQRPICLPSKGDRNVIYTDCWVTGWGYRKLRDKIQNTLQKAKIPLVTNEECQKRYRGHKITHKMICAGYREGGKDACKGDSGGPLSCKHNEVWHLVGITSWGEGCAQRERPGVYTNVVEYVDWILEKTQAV
T2 sequence (P03951 19-387 partner limits assumed): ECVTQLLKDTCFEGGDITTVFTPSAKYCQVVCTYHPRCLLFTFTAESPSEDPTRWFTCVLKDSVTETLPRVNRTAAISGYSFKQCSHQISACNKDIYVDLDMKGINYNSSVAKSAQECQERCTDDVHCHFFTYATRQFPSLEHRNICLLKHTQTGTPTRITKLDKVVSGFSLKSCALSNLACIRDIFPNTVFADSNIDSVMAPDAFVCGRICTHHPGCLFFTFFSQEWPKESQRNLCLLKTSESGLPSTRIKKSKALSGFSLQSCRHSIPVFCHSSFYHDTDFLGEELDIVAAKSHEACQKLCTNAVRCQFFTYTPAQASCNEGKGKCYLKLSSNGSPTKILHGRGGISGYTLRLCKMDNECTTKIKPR
Rat uPA, sequence (P29598 20-432): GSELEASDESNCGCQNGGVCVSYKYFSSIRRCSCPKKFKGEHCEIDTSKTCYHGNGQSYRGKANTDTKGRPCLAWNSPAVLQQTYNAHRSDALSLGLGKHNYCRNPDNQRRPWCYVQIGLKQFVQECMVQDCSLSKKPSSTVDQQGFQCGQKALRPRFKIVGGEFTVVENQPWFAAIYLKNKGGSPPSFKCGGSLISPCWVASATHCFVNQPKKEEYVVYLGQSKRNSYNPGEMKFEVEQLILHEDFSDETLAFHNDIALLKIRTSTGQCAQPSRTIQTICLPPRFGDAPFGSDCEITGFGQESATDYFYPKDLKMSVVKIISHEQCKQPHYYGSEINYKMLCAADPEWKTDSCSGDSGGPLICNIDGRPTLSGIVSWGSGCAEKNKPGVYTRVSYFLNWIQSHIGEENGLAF
Human Kallikrein-8, sequence (O60259 33-260): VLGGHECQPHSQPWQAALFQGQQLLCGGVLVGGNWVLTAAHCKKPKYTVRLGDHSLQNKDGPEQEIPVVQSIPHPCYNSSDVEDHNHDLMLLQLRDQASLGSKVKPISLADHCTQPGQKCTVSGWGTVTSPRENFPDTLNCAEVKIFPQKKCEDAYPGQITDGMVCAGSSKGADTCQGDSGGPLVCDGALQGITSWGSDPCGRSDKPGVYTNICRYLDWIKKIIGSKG
T6 sequence (P00740 227-461 limits assumed): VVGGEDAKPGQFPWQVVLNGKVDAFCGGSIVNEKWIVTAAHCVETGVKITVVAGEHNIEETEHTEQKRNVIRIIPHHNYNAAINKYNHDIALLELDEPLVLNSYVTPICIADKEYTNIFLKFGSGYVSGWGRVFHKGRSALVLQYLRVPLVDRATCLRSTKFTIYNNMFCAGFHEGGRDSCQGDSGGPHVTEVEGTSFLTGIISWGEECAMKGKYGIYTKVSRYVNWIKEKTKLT
T6 sequence (P00740 47-191 partner limits assumed): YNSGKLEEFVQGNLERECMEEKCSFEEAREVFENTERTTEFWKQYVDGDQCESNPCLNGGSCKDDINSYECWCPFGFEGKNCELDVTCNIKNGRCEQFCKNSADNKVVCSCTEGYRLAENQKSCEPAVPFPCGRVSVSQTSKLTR
Human Kallikrein-1, sequence (P06870 25-262): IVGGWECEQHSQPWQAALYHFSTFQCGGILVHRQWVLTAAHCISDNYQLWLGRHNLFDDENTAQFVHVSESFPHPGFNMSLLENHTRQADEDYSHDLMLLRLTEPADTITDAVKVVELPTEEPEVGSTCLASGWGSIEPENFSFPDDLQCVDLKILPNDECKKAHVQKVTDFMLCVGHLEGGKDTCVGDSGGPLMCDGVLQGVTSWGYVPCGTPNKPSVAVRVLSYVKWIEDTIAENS
Human Matriptase-2, sequence (Q8IU80 whole entry): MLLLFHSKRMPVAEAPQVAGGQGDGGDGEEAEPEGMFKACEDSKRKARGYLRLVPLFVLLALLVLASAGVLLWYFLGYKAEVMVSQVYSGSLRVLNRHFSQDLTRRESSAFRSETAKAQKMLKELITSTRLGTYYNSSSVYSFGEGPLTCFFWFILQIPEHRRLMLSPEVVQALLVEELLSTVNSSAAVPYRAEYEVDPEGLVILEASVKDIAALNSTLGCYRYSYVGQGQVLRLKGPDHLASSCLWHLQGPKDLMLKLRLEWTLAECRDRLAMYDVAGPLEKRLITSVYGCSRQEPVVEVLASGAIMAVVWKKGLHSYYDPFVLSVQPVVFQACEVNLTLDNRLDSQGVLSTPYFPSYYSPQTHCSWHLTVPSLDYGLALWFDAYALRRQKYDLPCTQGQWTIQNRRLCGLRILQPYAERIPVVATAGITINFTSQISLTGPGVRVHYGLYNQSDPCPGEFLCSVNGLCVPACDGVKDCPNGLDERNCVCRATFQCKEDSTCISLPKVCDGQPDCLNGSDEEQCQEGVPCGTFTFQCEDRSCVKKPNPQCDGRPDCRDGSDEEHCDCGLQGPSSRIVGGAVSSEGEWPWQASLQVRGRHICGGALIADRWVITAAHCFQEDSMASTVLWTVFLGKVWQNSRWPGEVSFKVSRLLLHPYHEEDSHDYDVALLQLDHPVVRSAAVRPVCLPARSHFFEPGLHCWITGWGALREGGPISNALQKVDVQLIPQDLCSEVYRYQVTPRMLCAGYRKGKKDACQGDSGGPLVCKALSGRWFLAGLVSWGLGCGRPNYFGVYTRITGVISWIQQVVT

## 4-[[4-[(Aminoiminomethyl)amino]benzoyl]oxy] benzeneacetic acid 2-(dimethylamino)-2-oxoethyl ester methanesulfonate [camostat, reference compound]
[1]
  antiviral activity / viral replication: inhibited
[2]
  inhibition of SARS-2-S-driven pseudotype entry: inactive

## CCOC(=O)N1CCN(C(=O)[C@H](Cc2cccc(C(=N)N)c2)NS(=O)(=O)c2c(C(C)C)cc(C(C)C)cc2C(C)C)CC1 [WX-UK1, N-α-(2,4,6-triisopropylphenylsulfonyl)-3-amidino-phenylalanine-4-ethoxycarbonylpiperazide]
[1]
  antiviral activity / viral replication: potent antiviral activity; also recorded: inhibited
  infectious virus production, TCID50 assay in apical washes: dose-dependent reduction
[1]; lowest concentration 3.33 μg/ml, […]
  reduction in viral load by TCID50: 4 log
[3]
  Ki: 100 ± 10 nM
[4]
  Ki: 800 ± 100 nM
[5]
  Ki: 900 ± 100 nM
[6]
  Ki: 190 ± 10 nM
[7]
  Ki: 13000 ± 2000 nM
[8]
  Ki: > 250000 nM
[9]
  Ki: 6400 ± 300 nM
[10]
  Ki: > 250000 nM
[11]
  Ki: 75 ± 3 nM
[12]
  Ki: 3900 ± 200 nM
[13]
  Ki: 3100 ± 400 nM
[14]
  Ki: 45000 ± 6000 nM
[15]
  Ki: 1400 ± 100 nM
[16]
  Ki: 1500 ± 100 nM
[17]
  Ki: 14000 ± 400 nM
[18]
  Ki: 400 ± 100 nM
[19]
  Ki: 2900 ± 100 nM
[20]
  Ki: 2400 ± 300 nM
[21]
  Ki: 500 ± 100 nM
[22]
  Ki: 710 ± 40 nM
[23]
  Ki: > 250000 nM
[24]
  IC50: > 250000 nM
[25]
  Ki: 390 ± 10 nM
[26]
  Ki: 4300 ± 500 nM
[27]
  Ki: 19 ± 4 nM
[28]
  Ki: 2500 ± 200 nM
[29]
  Ki: 2900 ± 40 nM
[30]
  Ki: 900 ± 100 nM
[31]
  inhibition of VSV-G entry: moderately inhibited
[32]
  Ki: 7700 ± 500 nM
[33]
  inhibition of SARS-2-S-driven pseudotype entry: moderate inhibitory activity
[34]
  IC50: 19000 ± 4000 nM
[35]
  Ki: 800 ± 100 nM
[36]
  Ki: 2600 ± 400 nM
[37]
  Ki: > 250000 nM
[2]
  inhibition of SARS-2-S-driven pseudotype entry: moderate inhibitory activity
[38]
  Ki: 28000 ± 5000 nM
[39]
  Ki: 26000 ± 1000 nM

## CCN(CC)CCCC(C)Nc1ccnc2cc(Cl)ccc12 (centres unmarked) [chloroquine]
[2]
  inhibition of S protein-driven entry: potently inhibited
